The text below walks through data of patent US4698336A, “3-(pyrrolidinio)methyl-3-cephem derivatives” (Eisai Co., Ltd., priority 1985, dated 1987).

Molecules are shown by their SMILES. Converted amounts (≈) assume the structure as drawn. Bounds are passed on as bounds.

Broadly, the MIC is the lowest concentration that inhibits growth of the organism. Higher therefore signals a less susceptible organism. Usually LD50 stands for the dose at which mortality reaches 50%.

Series [1] has as its system Staphylococcus aureus 209-P. Kind of series: Antibacterial activity (MIC), Staphylococcus aureus 209-P. It counts as cell-based.
In another series the test system is Escherichia coli NIHJ. Kind of series: Antibacterial activity (MIC), Escherichia coli NIHJ. In kind it is cell-based.
Series [2] relates to Staphylococcus aureus E31106. Kind of series: Antibacterial activity (MIC), Staphylococcus aureus E31106. In kind it is cell-based. The following applies: Staphylococcus aureus E31106, β Lactamase producing bacteria.
For series [3], the system named is Pseudomonas aeruginosa EP-01. Kind of series: Antibacterial activity (MIC), Pseudomonas aeruginosa EP-01. It counts as cell-based. The note with it: EP01.
The test system of series [4] is Citrobacter freundii EC-34. Kind of series: Antibacterial activity (MIC), Citrobacter freundii EC-34. In kind it is cell-based. The note with it: EC34; Citrobacter freundii EC-34, β Lactamase producing bacteria.
Series [5] has as its system Serratia marcescens ES-75. Kind of series: Antibacterial activity (MIC), Serratia marcescens ES-75. It counts as cell-based. The note with it: ES75.
Series [6] has as its system Pseudomonas maltophilia E04004. Kind of series: Antibacterial activity (MIC), Pseudomonas maltophilia E04004. It counts as cell-based. The following applies: Stenotrophomonas maltophilia.
A short description of series [7]: Acute toxicity, LD50 (mouse, intravenous injection). The note with it: in vivo. The source says: Acute toxicity [LD50 (mouse, intravenous injection)] of the following compounds was more than 3 g/kg.

In the case of `CO/N=C(\C(=O)N[C@@H]1C(=O)N2C(C(=O)[O-])=C(C[N@+]3(C)CCC[C@H]3C(N)=O)CS[C@H]12)c1csc(N)n1` [Control Compound, reference compound], the minimal inhibitory concentration (MIC) was determined as 1.56 µg/mL (≈ 2.98 µM) in series [1]; 0.1 µg/mL (≈ 0.191 µM) in the series on Escherichia coli NIHJ; 50 µg/mL (≈ 95.5 µM) in series [2]; 6.25 µg/mL (≈ 11.9 µM) in series [3]; 0.2 µg/mL (≈ 0.382 µM) in series [4]; 0.2 µg/mL (≈ 0.382 µM) in series [5]. Also, in series [6], it took 12.5 µg/mL (≈ 23.9 µM) to inhibit growth (MIC).

Consider `CO/N=C(\C(=O)N[C@@H]1C(=O)N2C(C(=O)[O-])=C(C[N@+]3(C)CCC[C@H]3CO)CS[C@H]12)c1nsc(N)n1` [Example 1-A, 7β-[2-(5-Amino-1,2,4-thiadiazol-3-yl)-(Z)-2-methoxyiminoacetamido]-3-[(2S)-hydroxymethyl-(1S)-methylpyrrolidinio]methyl-3-cephem-4-carboxylate], for which the minimal inhibitory concentration (MIC) worked out at 1.56 µg/mL (≈ 3.05 µM) in series [1]; 0.025 µg/mL (≈ 0.0489 µM) in the series with Escherichia coli NIHJ; 6.25 µg/mL (≈ 12.2 µM) in series [2]; 0.8 µg/mL (≈ 1.56 µM) in series [3]; 0.05 µg/mL (≈ 0.0977 µM) in series [4]; 0.1 µg/mL (≈ 0.195 µM) in series [5]. Further, the minimal inhibitory concentration (MIC) in series [6] was 6.25 µg/mL (≈ 12.2 µM). The same compound returned a median lethal dose (LD50) in series [7] above 3000 mg/kg.

`CO/N=C(\C(=O)N[C@@H]1C(=O)N2C(C(=O)[O-])=C(C[N@@+]3(C)CCC[C@H]3CO)CS[C@H]12)c1nsc(N)n1` [Example 1-B, 7β-[2-(5-Amino-1,2,4-thiadiazol-3-yl)-(Z)-2-methoxyiminoacetamido]-3-[ (2S)-hydroxymethyl-(1R)-methylpyrrolidinio]methyl-3-cephem-4-carboxylate]: the minimum inhibitory concentration (MIC) in series [1] turned out to be 1.56 µg/mL (≈ 3.05 µM); against Escherichia coli NIHJ, 0.1 µg/mL (≈ 0.195 µM); in series [2], 12.5 µg/mL (≈ 24.4 µM); in series [3], 1.56 µg/mL (≈ 3.05 µM); in series [4] it was 0.1 µg/mL (≈ 0.195 µM); in series [5], 0.1 µg/mL (≈ 0.195 µM). This compound showed a minimum inhibitory concentration (MIC) in series [6] of 6.25 µg/mL (≈ 12.2 µM).

With `CO/N=C(\C(=O)N[C@@H]1C(=O)N2C(C(=O)[O-])=C(C[N@+]3(C)CCC[C@H]3C(N)=O)CS[C@H]12)c1nsc(N)n1` [Example 2, 7β-[2-(5-Amino-1,2,4-thiadiazol-3-yl)-(Z)-2-methoxyiminoacetamido]-3-[(2S)-carbamoyl-(1S)-methylpyrrolidinio]methyl-3-cephem-4-carboxylate], the MIC in series [1] is 1.56 µg/mL (≈ 2.97 µM); against Escherichia coli NIHJ, below 0.025 µg/mL; in series [2] it was 12.5 µg/mL (≈ 23.8 µM); in series [3], 1.56 µg/mL (≈ 2.97 µM); in series [4] it was 0.05 µg/mL (≈ 0.0953 µM); in series [5] it was 0.1 µg/mL (≈ 0.191 µM). The compound also returned a minimal inhibitory concentration (MIC) in series [6] of 3.13 µg/mL (≈ 5.97 µM). Moreover, the median lethal dose (LD50) in series [7] is above 3000 mg/kg.

As to `CO/N=C(\C(=O)N[C@@H]1C(=O)N2C(C(=O)[O-])=C(C[N@+]3(C)CCC[C@H]3C)CS[C@H]12)c1nsc(N)n1` [Example 3, 7β-[2-(5-Amino-1,2,4-thiadiazol-3-yl)-(Z)-2-methoxyiminoacetamido]-3-[(1S,2R)-dimethylpyrrolidinio]methyl-3-cephem-4-carboxylate], the MIC in series [1] worked out at 1.56 µg/mL (≈ 3.15 µM); against Escherichia coli NIHJ, 0.2 µg/mL (≈ 0.404 µM); in series [2], 12.5 µg/mL (≈ 25.2 µM); in series [3], 1.56 µg/mL (≈ 3.15 µM); in series [4] it was 0.2 µg/mL (≈ 0.404 µM); in series [5], 0.2 µg/mL (≈ 0.404 µM). This compound also displayed a minimum inhibitory concentration (MIC) in series [6] of 6.25 µg/mL (≈ 12.6 µM). In series [7], this compound came in with an LD50 above 3000 mg/kg.

For `CO/N=C(\C(=O)N[C@@H]1C(=O)N2C(C(=O)[O-])=C(C[N@+]3(C)CCC[C@H]3CO)CS[C@H]12)c1csc(N)n1` [Example 5, 7β-[2-(2-Aminothiazol-4-yl)-(Z)-2-methoxyiminoacetoamido]-3-[(2S)-hydroxymethyl-(1S)-methylpyrrolidinio]methyl-3-cephem-4-carboxylate], the MIC in series [1] was determined as 0.8 µg/mL (≈ 1.57 µM); with Escherichia coli NIHJ, 0.05 µg/mL (≈ 0.0979 µM); in series [2], 25 µg/mL (≈ 49 µM); in series [3], 3.13 µg/mL (≈ 6.13 µM); in series [4] it was 0.05 µg/mL (≈ 0.0979 µM); in series [5] it was 0.1 µg/mL (≈ 0.196 µM). Besides, it took 12.5 µg/mL (≈ 24.5 µM) to inhibit growth in series [6] (MIC). In series [7], this compound yielded an LD50 above 3000 mg/kg.
